In PMC4155686, “Oleoyl Coenzyme A Regulates Interaction of Transcriptional Regulator RaaS (Rv1219c) with DNA in Mycobacteria*” (The Journal of Biological Chemistry, 2014) one finds Kd data, which are given here for one molecule.

The target in the experiment is RaaS (Rv1219c) (Mycobacterium tuberculosis, UniProt O86312). The experiment can be described thus: biochemical.
Chain of RaaS (Rv1219c) (O86312 whole entry): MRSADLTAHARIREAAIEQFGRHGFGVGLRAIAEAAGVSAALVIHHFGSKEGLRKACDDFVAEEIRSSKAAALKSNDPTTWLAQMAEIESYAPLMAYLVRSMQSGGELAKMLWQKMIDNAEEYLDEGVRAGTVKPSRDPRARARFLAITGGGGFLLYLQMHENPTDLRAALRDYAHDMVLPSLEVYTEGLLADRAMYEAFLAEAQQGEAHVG

By Kd is commonly meant the constant that tells how readily two partners part at equilibrium. Molecule `CCCCCCCC/C=C\CCCCCCCC(=O)SCCNC(=O)CCNC(=O)[C@H](O)C(C)(C)COP(=O)(O)OP(=O)(O)OC[C@H]1O[C@@H](n2cnc3c(N)ncnc32)[C@H](O)[C@@H]1OP(=O)(O)O` [oleoyl-CoA] showed a Kd of 3.65 ± 0.28 µM.
